Assay results: the supplement of paper PMC8617591

Assays:
[1] = test system: Mycobacterium tuberculosis Erdman (autoluminescent); test: Einf, fitted maximum growth inhibition of three-drug combination (fraction); higher = stronger maximal inhibition
Procedure: (§1)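 DiaMOND equipotent three-drug combination dose responses (10 doses, 1.5- or 2-fold spacing, centred on IC90) against autoluminescent M. tuberculosis Erdman in 8 in vitro models. Read-out is OD600, or luminescence for the intracellular and dormancy models, normalised to untreated wells. Hill-fit Einf, AUC25 and GRinf are potency metrics; FIC50 and FIC90 are total Loewe fractional inhibitory concentrations as log2 (negative = synergy).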

[2] = test system: Mycobacterium tuberculosis Erdman (autoluminescent); test: AUC25, normalised area under dose response up to IC25 (three-drug combination) (fraction (0-1)); higher = more potent at low dose
Procedure: as §1

[3] = test system: Mycobacterium tuberculosis Erdman (autoluminescent); test: total FIC50 (Loewe) at 50% inhibition, three-drug combination (log2); higher = more antagonistic
Procedure: as §1

[4] = test system: Mycobacterium tuberculosis Erdman (autoluminescent); test: total FIC90 (Loewe) at 90% inhibition, three-drug combination (log2); higher = more antagonistic
Procedure: as §1

[5] = test system: Mycobacterium tuberculosis Erdman (autoluminescent); test: GRinf, maximum normalised growth rate inhibition (three-drug combination) (unitless (-1 to 1)); higher = less effect (negative = killing)
Procedure: as §1

CC(C)/N=c1\cc2n(-c3ccc(Cl)cc3)c3ccccc3nc-2cc1Nc1ccc(Cl)cc1 [clofazimine] + CC(=O)NC[C@H]1CN(c2ccc(N3CCOCC3)c(F)c2)C(=O)O1 [linezolid] + NC(=O)c1cnccn1 [pyrazinamide]
Details | AUC25, [2] | Einf, [1] | GRinf, [5] | total FIC50, [3] | total FIC90, [4]
in vitro model: acidic pH 5.7, time point: constant (~7 days, model-specific) | 0.115 | 0.851 | -0.367 | -0.389 | –
in vitro model: acidic pH 5.7, time point: terminal (~4-5 doublings, model-specific) | 0.099 | 0.964 | -0.333 | 0.309 | -1.87
in vitro model: intracellular J774, time point: constant = terminal | – | 0.935 | -0.0585 | – | 0.0502

Details | AUC25, [2] | Einf, [1] | GRinf, [5] | total FIC50, [3] | total FIC90, [4]
in vitro model: butyrate, time point: constant (~7 days, model-specific) | 0.121 | 0.931 | -0.0985 | -0.132 | 1.31
in vitro model: butyrate, time point: terminal (~4-5 doublings, model-specific) | 0.08 | 0.95 | -0.0789 | -0.0376 | 0.0936
in vitro model: cholesterol 0.05 mM, time point: constant (~7 days, model-specific) | 0.131 | 0.722 | -0.114 | – | –
in vitro model: cholesterol 0.05 mM, time point: terminal (~4-5 doublings, model-specific) | 0.142 | 0.927 | -0.198 | 0.348 | –
in vitro model: cholesterol-high 0.2 mM, time point: constant (~7 days, model-specific) | 0.137 | 0.934 | -0.71 | 0.27 | –
in vitro model: cholesterol-high 0.2 mM, time point: terminal (~4-5 doublings, model-specific) | 0.128 | 1 | -0.983 | -0.375 | 0.282
in vitro model: dormancy (butyrate + nitrate, low O2), time point: constant (~7 days, model-specific) | 0.104 | 0.958 | -0.0605 | 0.947 | 1.54
in vitro model: dormancy (butyrate + nitrate, low O2), time point: terminal (~4-5 doublings, model-specific) | 0.0414 | 0.986 | -0.449 | 0.584 | 0.337
in vitro model: standard 7H9 glycerol, time point: constant = terminal | 0.123 | 0.939 | -0.131 | 0.477 | –
in vitro model: valerate, time point: constant (~7 days, model-specific) | 0.119 | 0.8 | 0.241 | 0.731 | –
in vitro model: valerate, time point: terminal (~4-5 doublings, model-specific) | 0.0593 | 0.874 | 0.183 | 0.277 | -1.05
